Test results: PubChem BioAssay AID1259338 (Broad Institute, 2017)
Activity calls are given as the source filed them.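 Rule for the calls: active = compounds lowering the signal with a fitted AC50 at or below a set concentration limit; inconclusive = flat curve with 30 to 70% inhibition, or a poor fit; inactive = the rest.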

Molecular target: Caspase recruitment domain-containing protein 9 (Homo sapiens) + E3 ubiquitin-protein ligase TRIM62 (Homo sapiens) (UniProt Q9H257+Q9BVG3)
Assay: disruptors of CARD9-TRIM62 binding, dose response, cell lysate, HEK293FT lysates, Luminex bead readout (AID 1259338); for activity change, negative = inhibition: reference of the scale not given here
Settings: Luminex bead PPI, MFI

Caspase recruitment domain-containing protein 9 (Homo sapiens) + E3 ubiquitin-protein ligase TRIM62 (Homo sapiens), sequence (Q9BVG3 whole entry, looked up, the tested form may be a part): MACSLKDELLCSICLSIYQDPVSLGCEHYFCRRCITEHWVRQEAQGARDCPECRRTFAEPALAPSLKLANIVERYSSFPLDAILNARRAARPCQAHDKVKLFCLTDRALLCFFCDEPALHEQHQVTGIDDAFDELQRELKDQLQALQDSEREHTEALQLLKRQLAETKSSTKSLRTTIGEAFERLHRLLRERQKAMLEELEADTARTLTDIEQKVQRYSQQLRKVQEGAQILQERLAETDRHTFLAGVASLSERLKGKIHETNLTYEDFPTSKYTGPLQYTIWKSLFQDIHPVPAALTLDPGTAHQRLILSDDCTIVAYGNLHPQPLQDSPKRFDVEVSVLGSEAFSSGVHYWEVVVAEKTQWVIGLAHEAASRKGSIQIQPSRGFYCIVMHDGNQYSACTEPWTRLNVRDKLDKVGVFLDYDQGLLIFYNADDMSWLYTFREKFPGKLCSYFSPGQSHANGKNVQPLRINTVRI
Caspase recruitment domain-containing protein 9 (Homo sapiens) + E3 ubiquitin-protein ligase TRIM62 (Homo sapiens), sequence (Q9H257 whole entry, looked up, the tested form may be a part): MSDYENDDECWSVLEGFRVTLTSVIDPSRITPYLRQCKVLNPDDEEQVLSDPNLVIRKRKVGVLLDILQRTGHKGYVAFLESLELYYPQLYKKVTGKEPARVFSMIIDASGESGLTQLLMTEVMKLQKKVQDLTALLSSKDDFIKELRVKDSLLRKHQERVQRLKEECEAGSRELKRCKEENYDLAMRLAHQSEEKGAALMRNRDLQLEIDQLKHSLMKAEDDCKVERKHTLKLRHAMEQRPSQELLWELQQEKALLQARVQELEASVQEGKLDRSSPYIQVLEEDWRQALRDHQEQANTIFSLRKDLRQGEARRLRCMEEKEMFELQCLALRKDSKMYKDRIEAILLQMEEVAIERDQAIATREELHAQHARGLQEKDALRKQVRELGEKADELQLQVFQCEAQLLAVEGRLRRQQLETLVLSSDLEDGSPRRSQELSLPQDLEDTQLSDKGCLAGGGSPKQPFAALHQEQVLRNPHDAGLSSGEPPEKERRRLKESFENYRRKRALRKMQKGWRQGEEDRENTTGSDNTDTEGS

Row | SMILES | activity change, negative = inhibition (at 80 µM (top of the series)) | AC50 | other results
1 | Cc1nn2c(c1-c1ccccc1)NC(c1ccco1)=CC2c1ccco1 (centres undefined) | inactive |  | 
2 | O=C(CN1CCOC1=O)N1CCC2(CCC(=O)N(CCCn3ccnc3)C2)CC1 |  | > 160 µM (inactive) | 
3 | CN(c1ccccc1C(=O)NCc1ccco1)S(C)(=O)=O | inactive |  | 
4 | CC1=CCC(C(=O)O)C(C(=O)NC2CCCCC2)C1 (centres undefined) |  | 83.4 µM | 
5 | CCOc1cc2c(C#N)c(N3CCNCC3)nc(N)c2c(N)n1 | inactive |  | 
6 | CC(C)(C)c1ccc(-c2nc(C#N)c(NCc3ccncc3)o2)cc1 | inactive |  | 
7 | CC1CCN(c2nc(-c3ccco3)c3c(c2C#N)CC(C)(C)OC3)CC1 | inactive |  | 
8 | O=C1CC2(CCN(C(=O)Nc3ccccc3)CC2)CN1Cc1ccc(Cl)cc1 |  | 68.7 µM | 
9 | CCCN1CCCn2nc(CNC(=O)[C@H]3CC[C@@H](N)C3)cc2C1 |  | 23 µM | 
10 | O=C(O)C1Oc2cc3ccccc3cc2O1 |  | 68.9 µM | 
11 | C[C@H](CO)N1C[C@H](C)[C@@H](CN(C)CC2CCCCC2)OCCCC[C@H](C)Oc2ccc(NS(=O)(=O)c3ccc(Cl)cc3)cc2C1=O | inactive |  | 
12 | Cc1[nH]c2ccc(Cl)cc2c(=O)c1CN1CCCC1 | inactive |  | 
13 | Cc1noc(C)c1S(=O)(=O)Nc1ccc2c(c1)C(=O)N([C@H](C)CO)C[C@H](C)[C@@H](CN(C)CC1CCCCC1)OCCCC[C@H](C)O2 | inactive |  | 
14 | CCc1oc2ccccc2c1C(=O)CCN1CCCCC1 | inactive |  | 
15 | O=[N+]([O-])c1ccc2cc[nH]c2c1 | inactive |  | 
16 | Cc1oc(CSCc2cc(C(=O)O)c(C)o2)cc1C(=O)O | inactive |  | 
17 | Cc1ncnc(N2CCC(c3nccn3Cc3cccnc3)CC2)c1C |  | > 160 µM (inactive) | 
18 | COc1cc(N)c(Cc2nccc3cc(OC)c(OC)cc23)cc1OC | inactive |  | 
19 | Cc1ccc(C(=O)Nc2cnc(N3CCC(C(N)=O)(N4CCCCC4)CC3)c(C(=O)O)c2)cc1 |  | 8.64 µM | 
20 | Cc1ccc(C(=O)Nc2ccc(N3CCC(C(N)=O)(N4CCCCC4)CC3)c(C(=O)O)c2)cc1 |  | 24.3 µM | 
21 | Nc1c2c(nc3ccccc13)CCN(Cc1ccccc1)C2 | inactive |  | 

Row | SMILES | activity change, negative = inhibition (at 80 µM (top of the series)) | AC50 | other results
22 | C(=N\n1cnnc1SCc1ccccc1)/c1ccco1 | inactive |  | 
23 | C[C@H](CO)N1C[C@H](C)[C@@H](CN(C)CC2CCCCC2)OCCCC[C@H](C)Oc2ccc(NS(C)(=O)=O)cc2C1=O |  | 28.9 µM | 
24 | COc1ccc(N2CC3=C(N2)c2ccccc2CC3)cc1 | inactive |  | 
25 | Cc1occc1C(=O)NCc1cccc(CNC(=O)c2ccoc2C)c1 | inactive |  | 
26 | CCc1cc2c(=O)n(Cc3ccco3)c(SC)nc2s1 | inactive |  | 
27 | C=CC(=O)N1CCCC2(CCN(CCN3CCCC3)C2=O)C1 (centres undefined) |  | 1.53 µM | 
28 | O=C(O)c1ccc2nc(-c3ccco3)c(-c3ccco3)nc2c1 |  | 34.7 µM | 
29 | O=C(Nc1nc(-c2ccco2)c(-c2ccco2)s1)c1ccc(F)cc1F | inactive |  | 
30 | Nc1ccc(-c2cccc(CN3CCCC3)c2)cc1 |  | > 160 µM (inactive) | 
31 | CCC12CCCN3CCc4c(n(c5ccccc45)C(O)(C(=O)OC)C1)C32 (centres undefined) |  |  | activity change, negative = inhibition (at 38 µM (top of the series)): inactive
32 | Nc1c(C(=O)NCc2ccco2)c2nc3ccccc3nc2n1CCN1CCOCC1 |  | > 160 µM (inactive) | 
33 | O=C(O)c1cc(-c2ccco2)nc2ccccc12 | inactive |  | 
34 | O=C(NCCc1ccco1)c1ccc(OCc2cn3ccccc3n2)cc1 | inactive |  | 
35 | O=C(COC(=O)c1ccccc1Oc1ccccc1)NCc1ccco1 | inactive |  | 
36 | O=C(COC(=O)c1ccc(F)cc1F)Nc1ncccn1 |  | 38.8 µM | 
37 | CC(=O)Nc1ccc2nc3c(=O)n(C)c(=O)n(C)c3nc2c1 | inactive |  | 
38 | C[C@H](CO)N1C[C@H](C)[C@@H](CN(C)C(=O)C2CCCCC2)OCCCC[C@H](C)Oc2ccc(NS(=O)(=O)c3ccccc3)cc2C1=O | inactive |  | 
39 | O=S(=O)(c1ccc(F)cc1)N1CN(Cc2ccco2)c2nc3ccccc3nc21 | inactive |  | 
40 | O=C(Nc1nc(-c2nc3ccccc3s2)cs1)c1ccco1 | inactive |  | 
41 | O=C(Cn1cncc1-c1ccc([N+](=O)[O-])cc1)Nc1ccccc1F | inactive |  | 
42 | O=C(Nc1cccc2nsnc12)c1ccc(-c2cccc(Cl)c2)o1 | inactive |  | 

Row | SMILES | activity change, negative = inhibition (at 80 µM (top of the series)) | AC50 | other results
43 | C[C@H](CO)N1C[C@H](C)[C@@H](CN(C)CC2CCCCC2)OCCCC[C@H](C)Oc2ccc(NS(=O)(=O)c3ccccc3)cc2C1=O | inactive |  | 
44 | Cc1ccc(S(=O)(=O)Nc2ccc3c(c2)C(=O)N([C@H](C)CO)C[C@H](C)[C@@H](CN(C)CC2CCCCC2)OCCCC[C@H](C)O3)cc1 | inactive |  | 
45 | CC(CCc1ccco1)N(C)S(=O)(=O)c1ccc2[nH]c(=O)ccc2c1 (centres undefined) | inactive |  | 
46 | O=C(Nc1nccs1)c1cc(-c2ccco2)nc2ccccc12 |  | > 160 µM (inactive) | 
47 | CC(C)=CCC(C#N)(CC=C(C)C)C(=O)O | inactive |  | 
48 | CCOc1ccc(-n2c3nc4ccccc4nc3c3c(=O)n(Cc4ccco4)cnc32)cc1 | inactive |  | 
49 | Cc1cc(C(=O)Nc2nc3c(s2)CCc2ccccc2-3)no1 | inactive |  | 
50 | O=C(Cc1ccc(S(=O)(=O)N2CCOCC2)s1)Nc1nc2c(s1)CCCC2 |  | > 160 µM (inactive) | 
51 | Cc1ccc(Nc2nc(C(=O)Nc3ccc(Cl)cc3)nc3ccccc23)cc1 |  | 22.9 µM | 
52 | O=C(O)Cc1c[nH]c2cccc(O)c12 | inactive |  | 
53 | COc1ccc(S(=O)(=O)N2CCN(C(=O)c3cc4c(s3)CCC4)CC2)cc1 |  | 63.1 µM | 
54 | O=c1/c(=C/c2ccco2)sc2nc3ccccc3n12 | inactive |  | 
55 | O=C(O)COCC(=O)NCc1ccco1 | inactive |  | 
56 | O=C(NCCCN1CCOCC1)c1cc(-c2ccco2)nc2ccccc12 |  | 41.8 µM | 
57 | O=C(Nc1ccc(OCC(=O)N2CCOCC2)cc1)c1cncc(Br)c1 |  | 42.1 µM | 
58 | COCC(=O)N1CCCC2(CCN(CCN3CCCC3)C2=O)C1 (centres undefined) |  | > 160 µM (inactive) | 
59 | Cc1ccsc1[C@@H]1CCN(Cc2ccc(-c3ccn[nH]3)o2)C[C@H]1O |  | > 160 µM (inactive) | 
60 | Cc1cccc(NC(=O)Cc2coc3ccc4ccccc4c23)n1 | inactive |  | 
61 | Cc1cncc(-c2ccc(S(N)(=O)=O)cc2F)c1 |  | 53.4 µM | 
62 | O=C(Nc1nc(-c2ccco2)c(-c2ccco2)s1)c1ccco1 | inactive |  | 
63 | CCNc1ncc(C(=O)NCCc2nc3c(s2)CCCC3)cn1 | inactive |  | 

Row | SMILES | activity change, negative = inhibition (at 80 µM (top of the series)) | AC50 | other results
64 | O=C(CCn1cncn1)N1CCC(n2cc(-c3ccccn3)nn2)CC1 | inactive |  | 
65 | O=C(Nc1nc(-c2ccco2)c(-c2ccco2)s1)C1CCC1 |  | 54.7 µM | 
66 | O=C(NCC1CCCO1)c1cc(-c2ccco2)nc2ccccc12 (centres undefined) |  | > 160 µM (inactive) | 
67 | C[C@H](CO)N1C[C@H](C)[C@@H](CN(C)C(=O)C2CCCCC2)OCCCC[C@H](C)Oc2ccc(NS(=O)(=O)c3ccc(Cl)cc3)cc2C1=O | inactive |  | 
68 | CCOC(=O)C1CCN(C(=O)CN(Cc2ccccc2)S(C)(=O)=O)CC1 |  | > 76 µM (inactive) | 
69 | O=C(Nc1ccon1)c1cc2cccnc2n(Cc2ccccc2)c1=O | inactive |  | 
70 | CC1Cc2ccccc2N1CC(=O)NC(=O)NC(C)(C)C (centres undefined) | inactive |  | 
71 | COc1c(C(=O)O)csc1Br |  | 29.6 µM | 
72 | CCc1ccc(Nc2nc(C(=O)NCc3ccc(N(C)C)cc3)nc3ccccc23)cc1 |  | 49 µM | 
73 | CC1(C)Cc2c(c(N3CCOCC3)nc3sc(C(=O)NCc4ccco4)c(N)c23)CO1 | inactive |  | 
74 | C[C@H](CO)N1C[C@H](C)[C@H](CN(C)C(=O)C2CCCCC2)OCCCC[C@H](C)Oc2ccc(NS(=O)(=O)c3cccs3)cc2C1=O | inactive |  | 
75 | Cn1cccc1CNCCCSc1ncccn1 | inactive |  | 
76 | C[C@H](CO)N1C[C@H](C)[C@@H](CN(C)CC2CCCCC2)OCCCC[C@H](C)Oc2ccc(NS(=O)(=O)c3ccc(F)cc3)cc2C1=O |  | 73 µM | 
77 | CCOC(=O)c1ccc(-c2ccc(C3CC(=O)Nc4cc5c(cc43)OCCO5)o2)cc1 (centres undefined) | inactive |  | 
78 | Cc1ccc(C)n1Nc1nc(O)cs1 |  |  | activity change, negative = inhibition (at 38 µM (top of the series)): inactive
79 | O=C(NC1CC1)c1cc(-c2ccco2)nc2ccccc12 |  | > 160 µM (inactive) | 
80 | Cc1nc2ccccc2nc1CSCc1ccco1 | inactive |  | 
81 | NC(=O)C1(N2CCCCC2)CCN(c2ncc(NC(=O)c3ccc(Cl)cc3)cc2C(=O)O)CC1 |  | 6.01 µM | 
82 | NC(=O)C1(N2CCCCC2)CCN(c2ncc(NC(=O)c3ccc(F)cc3)cc2C(=O)O)CC1 |  | 44.2 µM | 
83 | O=C(Nc1nccs1)c1cc(-c2ccccn2)nc2c(Cl)cccc12 |  | > 160 µM (inactive) | 
84 | Cc1c(/C=C/c2nc3ccccc3c(=O)n2-c2ccccn2)c2ccccc2n1C | inactive |  | 
